Measurements reported in the NIST ThermoML archive (doi:10.1021/acs.jced.6b00181).

Test: xn = mol fraction of the nth substance listed
Conditions: Liquid, Other PVT measurement

C=CC [propene] + CCCCCC
Conditions | mass density [kg/m3]
294.9 K, 1200 kPa, x1 = 0.9003 | 515.1
294.9 K, 1800 kPa, x1 = 0.9003 | 516.8
294.9 K, 2800 kPa, x1 = 0.9003 | 519
294.9 K, 3300 kPa, x1 = 0.9003 | 520.8
294.9 K, 4400 kPa, x1 = 0.9003 | 523.3
294.9 K, 10300 kPa, x1 = 0.9003 | 535.5
294.9 K, 17100 kPa, x1 = 0.9003 | 547.5
294.9 K, 24100 kPa, x1 = 0.9003 | 557.1
294.9 K, 30800 kPa, x1 = 0.9003 | 565.9
294.9 K, 37800 kPa, x1 = 0.9003 | 573.2
294.9 K, 44200 kPa, x1 = 0.9003 | 580.2
294.9 K, 51200 kPa, x1 = 0.9003 | 587.4
294.9 K, 55000 kPa, x1 = 0.9003 | 591.5
294.9 K, 58300 kPa, x1 = 0.9003 | 593.8
294.9 K, 67300 kPa, x1 = 0.9003 | 601.9
295 K, 1400 kPa, x1 = 0.606 | 568
295 K, 5200 kPa, x1 = 0.606 | 574.6
295 K, 6800 kPa, x1 = 0.606 | 577
295 K, 10300 kPa, x1 = 0.606 | 582.2
295 K, 17200 kPa, x1 = 0.606 | 592
295 K, 23900 kPa, x1 = 0.606 | 600
295 K, 30600 kPa, x1 = 0.606 | 606.9
295 K, 37500 kPa, x1 = 0.606 | 613.5
295 K, 44500 kPa, x1 = 0.606 | 619.4
295 K, 51100 kPa, x1 = 0.606 | 624.9
295 K, 57900 kPa, x1 = 0.606 | 630
295 K, 63100 kPa, x1 = 0.606 | 634.3
295 K, 66800 kPa, x1 = 0.606 | 636.7
295.3 K, 500 kPa, x1 = 0.4466 | 592.6
295.3 K, 700 kPa, x1 = 0.4466 | 594.3
295.3 K, 1400 kPa, x1 = 0.4466 | 595.1
295.3 K, 2100 kPa, x1 = 0.4466 | 596.8
295.3 K, 2800 kPa, x1 = 0.4466 | 597.6
295.3 K, 3700 kPa, x1 = 0.4466 | 598.9
295.3 K, 4800 kPa, x1 = 0.4466 | 600.6
295.3 K, 6800 kPa, x1 = 0.4466 | 603.6
295.3 K, 10200 kPa, x1 = 0.4466 | 607.9
295.3 K, 16900 kPa, x1 = 0.4466 | 615.3
295.3 K, 24100 kPa, x1 = 0.4466 | 622.5
295.3 K, 30900 kPa, x1 = 0.4466 | 629
295.3 K, 38100 kPa, x1 = 0.4466 | 634.6
295.3 K, 44500 kPa, x1 = 0.4466 | 640.3
295.3 K, 51600 kPa, x1 = 0.4466 | 646.2
295.3 K, 58300 kPa, x1 = 0.4466 | 651.1
295.3 K, 63000 kPa, x1 = 0.4466 | 654.6
295.3 K, 66500 kPa, x1 = 0.4466 | 657.1
295.6 K, 700 kPa, x1 = 0.1414 | 638.3
295.6 K, 1300 kPa, x1 = 0.1414 | 639.2
295.6 K, 1700 kPa, x1 = 0.8985 | 516.2
295.6 K, 1900 kPa, x1 = 0.8985 | 518.5
295.6 K, 2600 kPa, x1 = 0.8985 | 518.5
295.6 K, 3500 kPa, x1 = 0.1414 | 642
295.6 K, 3600 kPa, x1 = 0.8985 | 522.1
295.6 K, 4900 kPa, x1 = 0.8985 | 524.5
295.6 K, 7000 kPa, x1 = 0.8985 | 528.5
295.6 K, 8200 kPa, x1 = 0.1414 | 646.8
295.6 K, 8500 kPa, x1 = 0.8985 | 532.3
295.6 K, 10100 kPa, x1 = 0.8985 | 535.7
295.6 K, 10500 kPa, x1 = 0.8985 | 535.7
295.6 K, 10700 kPa, x1 = 0.1414 | 649.7
295.6 K, 13800 kPa, x1 = 0.8985 | 541.2
295.6 K, 14900 kPa, x1 = 0.1414 | 653.6
295.6 K, 16700 kPa, x1 = 0.8985 | 546.4
295.6 K, 17200 kPa, x1 = 0.8985 | 546.4
295.6 K, 20700 kPa, x1 = 0.1414 | 659.5
295.6 K, 23200 kPa, x1 = 0.8985 | 555.2
295.6 K, 24000 kPa, x1 = 0.1414 | 662.5
295.6 K, 27200 kPa, x1 = 0.1414 | 665.6
295.6 K, 29100 kPa, x1 = 0.8985 | 562.8
295.6 K, 30800 kPa, x1 = 0.1414 | 668.6
295.6 K, 34400 kPa, x1 = 0.8985 | 568.4
295.6 K, 37100 kPa, x1 = 0.1414 | 673.8
295.6 K, 38100 kPa, x1 = 0.8985 | 573.9
295.6 K, 41000 kPa, x1 = 0.8985 | 576.4
295.6 K, 42700 kPa, x1 = 0.1414 | 678.5
295.6 K, 44800 kPa, x1 = 0.8985 | 581.2
295.6 K, 47800 kPa, x1 = 0.1414 | 682.2
295.6 K, 48000 kPa, x1 = 0.1414 | 682.8
295.6 K, 48200 kPa, x1 = 0.1414 | 682.8
295.6 K, 48200 kPa, x1 = 0.8985 | 584.2
295.6 K, 48300 kPa, x1 = 0.1414 | 682.8
295.6 K, 51600 kPa, x1 = 0.8985 | 588
295.6 K, 52000 kPa, x1 = 0.1414 | 685.5
295.6 K, 54900 kPa, x1 = 0.8985 | 590.4
295.6 K, 55300 kPa, x1 = 0.1414 | 688.2
295.6 K, 55600 kPa, x1 = 0.1414 | 688.2
295.6 K, 58000 kPa, x1 = 0.1414 | 689.8
295.6 K, 58400 kPa, x1 = 0.8985 | 594.2
295.6 K, 61800 kPa, x1 = 0.8985 | 596.6
295.6 K, 61900 kPa, x1 = 0.1414 | 692.5
295.6 K, 66100 kPa, x1 = 0.1414 | 695.3
295.6 K, 66200 kPa, x1 = 0.1414 | 695.3
295.6 K, 67300 kPa, x1 = 0.8985 | 601.4
324.4 K, 900 kPa, x1 = 0.4466 | 560.3
324.4 K, 1400 kPa, x1 = 0.4466 | 561.7
324.4 K, 1900 kPa, x1 = 0.4466 | 562.5
324.4 K, 2100 kPa, x1 = 0.4466 | 563.2
324.4 K, 3400 kPa, x1 = 0.4466 | 565.5
324.4 K, 4900 kPa, x1 = 0.4466 | 568.9
324.4 K, 6800 kPa, x1 = 0.4466 | 571.9
324.4 K, 10200 kPa, x1 = 0.4466 | 577.8
324.4 K, 17200 kPa, x1 = 0.4466 | 588.5
324.4 K, 23800 kPa, x1 = 0.4466 | 597.6
324.4 K, 30700 kPa, x1 = 0.4466 | 606.1
324.4 K, 37800 kPa, x1 = 0.4466 | 614
324.4 K, 44700 kPa, x1 = 0.4466 | 620.3
324.4 K, 51400 kPa, x1 = 0.4466 | 626.2
324.4 K, 58300 kPa, x1 = 0.4466 | 631.8
324.4 K, 63700 kPa, x1 = 0.4466 | 636
324.4 K, 67500 kPa, x1 = 0.4466 | 638.9
324.6 K, 700 kPa, x1 = 0.1414 | 611.8
324.6 K, 1200 kPa, x1 = 0.1414 | 612.7
324.6 K, 1300 kPa, x1 = 0.606 | 533.2
324.6 K, 1800 kPa, x1 = 0.606 | 534.5
324.6 K, 1900 kPa, x1 = 0.1414 | 614
324.6 K, 2500 kPa, x1 = 0.606 | 536.2
324.6 K, 3400 kPa, x1 = 0.606 | 538.3
324.6 K, 3600 kPa, x1 = 0.1414 | 616.6
324.6 K, 5000 kPa, x1 = 0.1414 | 618.8
324.6 K, 5300 kPa, x1 = 0.606 | 542.5
324.6 K, 6800 kPa, x1 = 0.606 | 545.6
324.6 K, 7100 kPa, x1 = 0.1414 | 621.9
324.6 K, 8900 kPa, x1 = 0.1414 | 624.1
324.6 K, 9600 kPa, x1 = 0.1414 | 625.5
324.6 K, 10300 kPa, x1 = 0.1414 | 625.9
324.6 K, 10300 kPa, x1 = 0.606 | 552.4
324.6 K, 12300 kPa, x1 = 0.1414 | 628.6
324.6 K, 13600 kPa, x1 = 0.1414 | 630
324.6 K, 17100 kPa, x1 = 0.1414 | 634.1
324.6 K, 17400 kPa, x1 = 0.606 | 564.6
324.6 K, 19700 kPa, x1 = 0.1414 | 637.3
324.6 K, 23900 kPa, x1 = 0.606 | 573.8
324.6 K, 24100 kPa, x1 = 0.1414 | 642
324.6 K, 27400 kPa, x1 = 0.1414 | 644.9
324.6 K, 30700 kPa, x1 = 0.1414 | 648.2
324.6 K, 30700 kPa, x1 = 0.606 | 583.4
324.6 K, 34300 kPa, x1 = 0.1414 | 651.6
324.6 K, 37500 kPa, x1 = 0.1414 | 654.6
324.6 K, 37900 kPa, x1 = 0.606 | 592.4
324.6 K, 44300 kPa, x1 = 0.1414 | 660.5
324.6 K, 44400 kPa, x1 = 0.606 | 599.1
324.6 K, 47800 kPa, x1 = 0.1414 | 663.5
324.6 K, 51300 kPa, x1 = 0.1414 | 666.6
324.6 K, 51400 kPa, x1 = 0.606 | 606.4
324.6 K, 55200 kPa, x1 = 0.1414 | 669.7
324.6 K, 58100 kPa, x1 = 0.606 | 612.2
324.6 K, 58400 kPa, x1 = 0.1414 | 672.2
324.6 K, 62700 kPa, x1 = 0.1414 | 675.4
324.6 K, 63000 kPa, x1 = 0.606 | 616.2
324.6 K, 66500 kPa, x1 = 0.1414 | 678.5
324.6 K, 67200 kPa, x1 = 0.606 | 619.4
325.1 K, 2100 kPa, x1 = 0.9003 | 470.3
325.1 K, 2800 kPa, x1 = 0.9003 | 473.5
325.1 K, 3700 kPa, x1 = 0.9003 | 476.8
325.1 K, 7000 kPa, x1 = 0.9003 | 489.5
325.1 K, 10400 kPa, x1 = 0.9003 | 499.8
325.1 K, 16500 kPa, x1 = 0.9003 | 515.1
325.1 K, 24000 kPa, x1 = 0.9003 | 530.6
325.1 K, 30900 kPa, x1 = 0.9003 | 542.4
325.1 K, 37500 kPa, x1 = 0.9003 | 551.5
325.1 K, 44500 kPa, x1 = 0.9003 | 559.6
325.1 K, 51500 kPa, x1 = 0.9003 | 567.6
325.1 K, 58300 kPa, x1 = 0.9003 | 574.5
325.1 K, 63700 kPa, x1 = 0.9003 | 580.2
325.1 K, 67200 kPa, x1 = 0.9003 | 583.3
325.5 K, 2400 kPa, x1 = 0.8985 | 471.9
325.5 K, 2800 kPa, x1 = 0.8985 | 474.2
325.5 K, 3500 kPa, x1 = 0.8985 | 476.7
325.5 K, 4700 kPa, x1 = 0.8985 | 481.2
